Tests used:
[1] = test system: aromatase activity in SK-BR-3 breast cancer cells; assay: Aromatase tritiated water-release assay in SK-BR-3 cell lines (first compound set); type: cell-based, human; settings: SK-BR-3 cells; for IC50: 24 h treatment, five concentrations, each in triplicate, read-out: IC50 (μM), suppression of aromatase activity in SK-BR-3 breast cancer cells
Description: Aromatase Tritiated Water-Release Assay in SK-BR-3 Cell Lines. SK-BR-3 cells were obtained from ATCC (Rockville, Md.). Cell cultures were maintained in phenol red-free custom media (MEM, Earle's salts, 1.5× amino acids, 2× nonessential amino acids, L-glutamine, 1.5× vitamins, Gibco BRL) supplemented with 10% fetal bovine serum (FBS), 2 mM L-glutamine, and 20 mg/L gentamycin. Measurement of aromatase enzyme activity was based on the tritium water release assay. 24 Cells in 100 mm Petri dish were treated with 0.1% DMSO (control), and inhibitors at the indicated concentrations. After 24 h, the media was changed and the cells were incubated with 100 nM [1â-3H]-androst-4-ene-3,17-dione ([…]) for 3 h. Subsequently, the reaction mixture was removed, and proteins were precipitated using 10% trichloroacetic acid at 42° C. for 20 min. After a brief centrifugation, the media was extracted three times with an equal amount of chloroform to extract unused substrate and further dextran-treated charcoal. After centrifugation, a 250-μL aliquot containing the product was counted in 5 mL of liquid scintillation mixture. Results were corrected for blanks and for the cell contents of culture flasks, and results were expressed as picomoles of 3H2O formed per hour incubation time per million live cells (pmol/h/10^6 cells). To determine the amount of cells in each flask, the cells were trypsinized and analyzed using the diphenylamine DNA assay adapted to a 96-well plate. (Natarajan N.; Shambaugh, G. E., 3rd; Elseth K. M.; Haines G. K.; Radosevich J. A. Adaptation of the diphenylamine (DPA) assay to a 96-well plate tissue culture format and comparison with the MTT assay. Biotechniques 1994, 17, 166-171; incorporated herein by reference). IC50 sigmoidal dose-response data were analyzed with Microsoft Excel and the Graphpad Prism (Version 3.0) program.

[2] = test system: PGE2 production in MDA-MB-231 cells; assay: Enzyme immunoassay of PGE2 in MDA-MB-231 cells (COX-2 inhibitory activity); type: cell-based, human; settings: 25 μM, 24 h (FIG. 4)
Description: Enzyme Immunoassay of PGE2 in MDA-MB-231 Cells. MDA-MB-231 cells were obtained from ATCC (Rockville, Md.). Cell cultures were maintained in phenol red-free custom media (MEM, Earle's salts, 1.5× amino acids, 2× nonessential amino acids, L-glutamine, 1.5× vitamins, Gibco BRL) supplemented with 10% fetal bovine serum (FBS), 2 mM L-glutamine and 20 mg/L gentamycin. To study PGE2 synthesis in cell culture media, experiments were performed in […] Petri dishes. An aliquot of MDA-MB-231 cells (15×10^4 cells) were added to each dish and then incubated overnight to allow the cells to adhere to the dish. After that, cells were serum starved in defined media for 24 h. This step was followed by replacement of media with fresh media containing either vehicle (DMSO) or the indicated concentration of agents. After 24 h incubation at 37° C. the media were collected and the amount of PGE2 was determined by ELISA (Cayman Chemical) according to the protocol provided by the manufacturer. PGE2 concentration was normalized to total protein. Total proteins were extracted from adhered cells by 30 min treatment with 0.5 M NaOH at room temperature and shaking. Protein concentrations in these extracts were determined using a protein assay method (Bio-Rad Laboratories, Inc., Hercules, Calif.).

[3] = test system: CYP19 mRNA expression in SK-BR-3 cells; assay: CYP19 mRNA expression by real-time RT-PCR in SK-BR-3 cells; type: cell-based, human; settings: 25 μM, 24 h (FIG. 5)
Description: (§1) RNA Extraction. Total RNA was isolated using the TRIzol reagent according to the manufacturer's protocol. Total RNA pellets were dissolved in DNase- and RNase-free water and quantitated using a spectrophotometer. The quality of RNA samples was determined by electrophoresis through agarose gels and staining with ethidium bromide; the 18S and 28S rRNA bands were visualized under ultraviolet light.
(§2) cDNA Synthesis. Isolated total RNA (2 μg) was treated with DNase I Amplification grade, according to the recommended protocol to eliminate any DNA before reverse transcription. Treated total RNA was denatured at 65° C. for 5 min in the presence of 2.5 ng/μL random hexamers and 0.5 mM dNTP mix. The samples were snap-cooled on ice and centrifuged briefly. Complementary DNA (cDNA) was synthesized using Superscript II reverse transcriptase according to the recommended protocol. Briefly, the reactions were conducted in the presence of 1× First-Strand Buffer and 20 mM DTT at 42° C. for 50 min and consequently inactivated at 70° C. for 15 min. The cDNA generated was used as a template in realtime PCR reactions.
Real-Time PCR. Real-time PCR was performed using the Opticon 2 system from MJ Research (Waltham, Mass.). For the CYP19 total gene the PCR reaction mixture consisted of Taqman Universal PCR Master Mix (Applied Biosystems), 600 nM of CYP19 primer (sense: 5′-TGTCTCTTTGTTCTTCATGCTATTTCTC-3′ (SEQ ID NO: 1); antisense: 5′-TCACCAATAACAGTCTGGATTTCC-3′) (SEQ ID NO: 2); 250 nM Taqman probe (6FAM 5′-TGCAAAGCACCCTAATGTTGAAGAGGCAAT-3′TAMRA) (SEQ ID NO: 3) (Invitrogen), 18S rRNA (Applied Biosystems, Foster City, Calif.), and 2.0 μL of each RT sample in a final volume of 20 μL. The Taqman probe was designed to anneal to a specific sequence of the aromatase gene between the forward and the reverse primers. Cycling conditions were 50° C. for 2 mm and 95° C. for 10 mm, followed by 50 cycles at 95° C. for 15 s and 60° C. for 1 mm.
as §1, with “extraction.” for “Extraction.”, “DNase,” for “DNase- and”
as §2, with “synthesis.” for “Synthesis.”, “real-time” for “realtime”
Real-time PCR. Real-time PCR was performed using the Opticon™ 2 system from MJ Research (Waltham, Mass.). For the CYP19 total gene the PCR reaction mixture consisted of Taqman® Universal PCR Master Mix (Applied Biosystems), 600 nM of CYP19 primer (sense: 5′-TGTCTCTTTGTTCTTCATGCTATTTCTC-3′ (SEQ ID NO: 1); antisense: 5′-TCACCAATAACAGTCTGGATTTCC-3′) (SEQ ID NO: 2); 250 nM Taqman probe (6FAM 5′-TGCAAAGCACCCTAATGTTGAAGAGGCAAT-3′TAMRA) (SEQ ID NO: 3) (Invitrogen), and 2.0 μL of each cDNA sample in a final volume of 20 μL. […]

[4] = test system: aromatase activity in SK-BR-3 breast cancer cells; assay: Aromatase tritiated water-release assay in SK-BR-3 cell lines (first compound set); type: cell-based, human; settings: SK-BR-3 cells

Row | melting point | Structure (SMILES) | IC50 [1] | PGE2 production (COX-2 inhibitory activity) [2] | CYP19 gene expression relative to control [3] | time-course of suppression of aromatase activity ([4]; 2 μM) | time-course of suppression of aromatase activity ([4]; 10 μM) | increase of aromatase activity after removing the drug ([1]; letrozole 10 nM, after removal of drug) | time-course of suppression of aromatase activity ([4]; 10 nM)
1 | 100 to 102 °C | CCC(CC)Oc1cc([N+](=O)[O-])ccc1NS(C)(=O)=O [Compound 13, N-(2-(1-Ethyl-propyloxy-4-nitrophenyl))methanesulfonamide] | 0.3 µM | significantly decrease in PGE2 production | significantly decreased CYP19 gene expression | – | – | – | –
2 | 89 to 90 °C | CCC(CC)Oc1cc([N+](=O)[O-])ccc1N(C)S(C)(=O)=O [Compound 22, N-Methyl-N-(2-(1-ethyl-propyloxy-4-nitrophenyl))methanesulfonamide] | 0.23 µM | did not show any inhibitory activity | significantly decreased CYP19 gene expression | – | – | – | –
3 | – | C[C@@H]1C[C@@H]([C@H](O)CC2CC(=O)NC(=O)C2)C(=O)[C@@H](C)C1 [Cycloheximide] | – | – | – | – | showed similar results | – | –
4 | – | CS(=O)(=O)Nc1ccc([N+](=O)[O-])cc1OC1CCCCC1 [NS-398, N-(2-Cyclohexyloxy-4-nitrophenyl)methanesulfonamide, reference compound] | 0.68 µM | significantly decrease in PGE2 production | significantly decreased CYP19 gene expression | prolonged reversible suppression of aromatase | – | – | –
5 | – | N#Cc1ccc(C(c2ccc(C#N)cc2)n2cncn2)cc1 [letrozole, reference compound] | – | – | – | – | – | 150% | acute inhibition

Row | Structure (SMILES) | melting point | IC50 [1] | PGE2 production (COX-2 inhibitory activity) [2] | CYP19 gene expression relative to control [3] | time-course of suppression of aromatase activity ([4]; 2 μM) | time-course of suppression of aromatase activity ([4]; 10 μM) | increase of aromatase activity after removing the drug ([1]; letrozole 10 nM, after removal of drug) | time-course of suppression of aromatase activity ([4]; 10 nM)
6 | CN(c1ccc([N+](=O)[O-])cc1OC1CCCCC1)S(C)(=O)=O [Compound 17, N-Methyl-N-(2-cyclohexyloxy-4-nitrophenyl)methanesulfonamide] | 129 to 132 °C | 0.47 µM | did not show any inhibitory activity | significantly decreased CYP19 gene expression | prolonged reversible suppression of aromatase | – | – | –

— patent publication US7741520B2, “Sulfonanilide analogs as selective aromatase modulators (SAMs)” (The Ohio State University Research Foundation, priority 2006, dated 2010)
